Laboratory results as given in PubChem BioAssay AID328 (DTP/NCI, 2004).
Where “and” joins values, the source holds several entries; their conditions need not be identical. Identical values can stand only once. Inconclusive results and toxic doses are left out.

Tested on: BDF1 mice, P388 leukemia ip, median survival T/C
Experiment: NCI In Vivo Anticancer Drug Screen. Data for tumor model P388 Leukemia (intraperitoneal) in B6D2F1 (BDF1) mice
Settings: endpoint: median survival time, higher = longer survival
Description: The antitumor activity of compounds was measured in mice bearing transplantable tumors. Survival or tumor size were measured and the results are expressed as the measurement made in the treated group (T) divided by the measurement made in the vehicle treated control group (C). The tumor model used in this assay is P388 Leukemia (intraperitoneal) in B6D2F1 (BDF1) mice

[1] = dose: 100.0 mg/kg/injection, schedule: Q04DX003 (ip), vehicle: Klucel (hydroxypropylcellulose) (HPC)
[2] = dose: 200.0 mg/kg/injection, schedule: Q04DX003 (ip), vehicle: Klucel (hydroxypropylcellulose) (HPC)
[3] = dose: 400.0 mg/kg/injection, schedule: Q04DX003 (ip), vehicle: Klucel (hydroxypropylcellulose) (HPC)
[4] = dose: 50.0 mg/kg/injection, schedule: Q01DX009 (ip), vehicle: Klucel (hydroxypropylcellulose) (HPC)
[5] = dose: 100.0 mg/kg/injection, schedule: Q01DX009 (ip), vehicle: Klucel (hydroxypropylcellulose) (HPC)
[6] = dose: 200.0 mg/kg/injection, schedule: Q01DX009 (ip), vehicle: Klucel (hydroxypropylcellulose) (HPC)

[N-]=[N+]=CC(=O)CCC(N)C(=O)O (centres undefined)
T/C (dose: 0.03 mg/kg/injection, schedule: Q01DX010 (ip), vehicle: saline): 113 % of control | T/C (dose: 0.1 mg/kg/injection, schedule: Q01DX010 (ip), vehicle: saline): 170 % of control | T/C (dose: 0.1 mg/kg/injection, schedule: Q01DX010 (ip), vehicle: water): 150 % of control | T/C (dose: 0.2 mg/kg/injection, schedule: Q01DX010 (ip), vehicle: saline): 95 % of control and 100 % of control | T/C (dose: 0.2 mg/kg/injection, schedule: Q01DX010 (ip), vehicle: water): 190 % of control | T/C (dose: 0.4 mg/kg/injection, schedule: Q01DX010 (ip), vehicle: water): 155 % of control | T/C (dose: 0.6 mg/kg/injection, schedule: Q01DX010 (ip), vehicle: water): 95 % of control and 120 % of control | T/C (dose: 0.8 mg/kg/injection, schedule: Q01DX010 (ip), vehicle: water): 100 % of control | T/C (dose: 2.5 mg/kg/injection, schedule: Q02DX005 (oral), vehicle: other): 163 % of control | T/C (dose: 5.0 mg/kg/injection, schedule: Q02DX005 (oral), vehicle: other): 159 % of control | T/C (dose: 10.0 mg/kg/injection, schedule: Q02DX005 (oral), vehicle: other): 186 % of control | T/C (dose: 15.0 mg/kg/injection, schedule: Q02DX005 (oral), vehicle: other): 218 % of control | T/C (dose: 20.0 mg/kg/injection, schedule: Q02DX005 (oral), vehicle: other): 86 % of control

CC1=Nc2ccccc2C(=O)N(C)N1
T/C (dose: 50.0 mg/kg/injection, schedule: Q01DX009 (ip), vehicle: saline with Tween-80): 100 % of control | T/C (dose: 100.0 mg/kg/injection, schedule: Q01DX009 (ip), vehicle: saline with Tween-80): 104 % of control | T/C (dose: 200.0 mg/kg/injection, schedule: Q01DX009 (ip), vehicle: saline with Tween-80): 97 % of control

Brc1c(-c2ccccc2)cc(-c2ccccc2)cc1-c1ccccc1
T/C [1]: 108 % of control | T/C [2]: 95 % of control | T/C [3]: 95 % of control

CN1CCN=C1c1ccc(NC(=O)c2ccc(C(=O)Nc3ccc(C4=NCCN4C)cc3)c(N)c2)cc1
T/C (dose: 0.5 mg/kg/injection, schedule: Q01DX009 (ip), vehicle: saline with Tween-80): 150 % of control | T/C (dose: 1.0 mg/kg/injection, schedule: Q01DX009 (ip), vehicle: saline with Tween-80): 154 % of control | T/C (dose: 2.0 mg/kg/injection, schedule: Q01DX009 (ip), vehicle: saline with Tween-80): 181 % of control | T/C (dose: 2.0 mg/kg/injection, schedule: Q01DX009 (ip), vehicle: saline): 154 % of control | T/C (dose: 3.0 mg/kg/injection, schedule: Q01DX009 (ip), vehicle: saline): 166 % of control

COc1cccc(Sc2ccc([N+](=O)[O-])c3no[n+]([O-])c23)c1
T/C (dose: 30.0 mg/kg/injection, schedule: Q01DX009 (ip), vehicle: saline with Tween-80): 102 % of control | T/C (dose: 60.0 mg/kg/injection, schedule: Q01DX009 (ip), vehicle: saline with Tween-80): 115 % of control

CN(N=O)c1ccc(N(C)N=O)cc1
T/C [4]: 95 % of control | T/C [5]: 95 % of control | T/C [1]: 95 % of control | T/C [6]: 90 % of control | T/C [2]: 105 % of control | T/C [3]: 95 % of control

CCOC(=O)C(C(C)=O)C(c1ccc([N+](=O)[O-])cc1)C(C(C)=O)C(=O)OCC (centres undefined)
T/C (dose: 0.78 mg/kg/injection, schedule: Q04DX003 (ip), vehicle: saline): 117 % of control | T/C (dose: 1.56 mg/kg/injection, schedule: Q04DX003 (ip), vehicle: saline): 114 % of control | T/C (dose: 3.12 mg/kg/injection, schedule: Q01DX009 (ip), vehicle: saline): 108 % of control | T/C (dose: 3.12 mg/kg/injection, schedule: Q04DX003 (ip), vehicle: saline): 104 % of control | T/C (dose: 6.25 mg/kg/injection, schedule: Q01DX009 (ip), vehicle: saline): 106 % of control | T/C (dose: 6.25 mg/kg/injection, schedule: Q04DX003 (ip), vehicle: saline): 99 % of control | T/C (dose: 12.5 mg/kg/injection, schedule: Q01DX009 (ip), vehicle: saline): 100 % of control | T/C (dose: 12.5 mg/kg/injection, schedule: Q04DX003 (ip), vehicle: saline): 111 % of control | T/C (dose: 25.0 mg/kg/injection, schedule: Q01DX009 (ip), vehicle: saline): 92 % of control | T/C (dose: 25.0 mg/kg/injection, schedule: Q04DX003 (ip), vehicle: saline): 99 % of control | T/C (dose: 50.0 mg/kg/injection, schedule: Q01DX009 (ip), vehicle: saline): 89 % of control | T/C (dose: 100.0 mg/kg/injection, schedule: Q01DX009 (ip), vehicle: saline): 93 % of control

C=C1C(=O)O[C@H]2C/C(C)=C/CC/C(CO)=C/[C@@H](O)[C@H]12
T/C (dose: 5.5 mg/kg/injection, schedule: Q01DX009 (ip), vehicle: alcohol): 110 % of control | T/C (dose: 33.0 mg/kg/injection, schedule: Q01DX009 (ip), vehicle: alcohol): 120 % of control | T/C (dose: 50.0 mg/kg/injection, schedule: Q01DX009 (ip), vehicle: alcohol): 95 % of control

O=C(NC(Cc1ccccc1)C(=O)CCl)OCc1ccccc1 (centres undefined)
T/C (dose: 4.4 mg/kg/injection, schedule: Q01DX009 (ip), vehicle: saline with Tween-80): 112 % of control | T/C (dose: 6.6 mg/kg/injection, schedule: Q01DX009 (ip), vehicle: saline with Tween-80): 120 % of control | T/C (dose: 15.0 mg/kg/injection, schedule: Q01DX009 (ip), vehicle: saline with Tween-80): 112 % of control | T/C (dose: 25.0 mg/kg/injection, schedule: Q01DX009 (ip), vehicle: saline with Tween-80): 105 % of control and 113 % of control | T/C (dose: 37.5 mg/kg/injection, schedule: Q01DX009 (ip), vehicle: saline with Tween-80): 86 % of control

C=C1C(c2ccccc2)C(c2ccccc2)=C(C)C(c2ccccc2)=CN1C(=O)c1ccccc1 (centres undefined)
T/C [4]: 97 % of control | T/C [5]: 88 % of control | T/C [6]: 95 % of control

CC(=O)NC(Cc1ccc(N(CCCl)CCCl)cc1)C(=O)O (centres undefined)
T/C (dose: 1.56 mg/kg/injection, schedule: Q01DX009 (ip), vehicle: water): 110 % of control | T/C (dose: 3.12 mg/kg/injection, schedule: Q01DX009 (ip), vehicle: water): 123 % of control | T/C (dose: 6.25 mg/kg/injection, schedule: Q01DX009 (ip), vehicle: water): 118 % of control | T/C (dose: 12.5 mg/kg/injection, schedule: Q04DX003 (ip), vehicle: water): 172 % of control | T/C (dose: 25.0 mg/kg/injection, schedule: Q01DX009 (ip), vehicle: water): 203 % of control | T/C (dose: 25.0 mg/kg/injection, schedule: Q04DX003 (ip), vehicle: water): 164 % of control and 200 % of control | T/C (dose: 50.0 mg/kg/injection, schedule: Q01DX009 (ip), vehicle: water): 248 % of control | T/C (dose: 50.0 mg/kg/injection, schedule: Q04DX003 (ip), vehicle: water): 245 % of control and 200 % of control | T/C (dose: 100.0 mg/kg/injection, schedule: Q04DX003 (ip), vehicle: water): 194 % of control
